The numbers were not newly measured in patent publication US20240122858A1, “MODIFIED-RELEASE DOSAGE FORMS OF RUXOLITINIB” (SLAYBACK PHARMA LLC, priority 2021, published 2024), which cites them from elsewhere.

SMILES strings stand for the structures.

Turning to `N#CC[C@H](C1CCCC1)n1cc(-c2ncnc3[nH]ccc23)cn1` [Ruxolitinib], the “solubility in aqueous buffers” value (free base) is on record as “sparingly soluble”.
`N#CC[C@H](C1CCCC1)n1cc(-c2ncnc3[nH]ccc23)cn1` [Ruxolitinib phosphate, (3R)-3-cyclopentyl-3-[4-(7H-pyrrolo[2,3-d]-pyrimidin-4-yl)-pyrazol-1-yl]-propanenitrile phosphate]: the permeability entry was “high permeability”. The aqueous solubility result (over a pH range of 1-8) is reported as “high aqueous solubility”.
